# In US8741911B2, “Raf inhibitor compounds” (Eli Lilly and Company, priority 2012, dated 2014):
# Read-outs that look alike come from different tables or passages of the source.
# Columns and labels:
# A-Raf (WT) = target: T1, A-Raf (WT) (Homo sapiens, UniProt P10398); assay: ActivX KiNativ A375 whole cell lysate assay; type: binding
# T1 construct: Measurement of Raf Kinase Activities with Native Whole Enzymes Using KiNativ Assay; host or cells: A375 human melanoma cells, whole cell lysate
# T1 sequence (P10398 1-606): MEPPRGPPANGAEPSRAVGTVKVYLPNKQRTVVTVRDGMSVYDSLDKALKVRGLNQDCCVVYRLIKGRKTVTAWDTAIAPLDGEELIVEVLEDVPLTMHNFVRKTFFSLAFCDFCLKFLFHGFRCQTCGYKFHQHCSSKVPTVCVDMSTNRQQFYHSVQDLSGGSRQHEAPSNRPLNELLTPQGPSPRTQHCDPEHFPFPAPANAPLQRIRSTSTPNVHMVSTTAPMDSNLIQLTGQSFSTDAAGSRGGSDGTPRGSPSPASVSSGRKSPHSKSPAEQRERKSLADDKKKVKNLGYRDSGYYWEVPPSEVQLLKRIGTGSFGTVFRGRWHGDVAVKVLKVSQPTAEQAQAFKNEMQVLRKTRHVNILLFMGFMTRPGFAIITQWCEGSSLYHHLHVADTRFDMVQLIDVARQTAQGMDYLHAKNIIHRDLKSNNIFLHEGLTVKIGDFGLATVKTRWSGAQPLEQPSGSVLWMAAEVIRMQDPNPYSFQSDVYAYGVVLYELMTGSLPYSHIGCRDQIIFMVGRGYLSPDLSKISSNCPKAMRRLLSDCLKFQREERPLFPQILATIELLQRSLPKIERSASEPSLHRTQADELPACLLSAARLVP
# HT-29 cells = assay: CellTiter-Blue HT-29 cell proliferation assay; type: cell-based; conditions: Homo sapiens; HT-29, CellTiter-Blue; read-out: Cell Proliferation Inhibition IC50
# Protocol: HT-29 cells (catalog #HTB-38) are obtained from the American Type Culture Collection (ATCC, Manassas, Va.). Briefly, cells are grown in McCoy's 5A supplemented with 10% characterized fetal bovine serum (Invitrogen, Carlsbad, Calif.), and 1% Penicillin/Streptomycin/L-Glutamine at 37 degrees Celsius, 5% CO2, and 95% humidity. Cells are allowed to expand until reaching 75-90% confluency at which point they are subcultured or harvested for assay use. A serial dilution of test compound is dispensed into a 384-well black clear bottom plate in triplicate. One thousand two-hundred fifty cells are added per well in 50 μL complete growth medium in the 384-well plate. Plates are incubated for 67 hours at 37 degrees Celsius, 5% CO2, and 95% humidity. At the end of the incubation period, 10 μL of a 440 μM solution of resazurin (Sigma, St. Louis, Mo.) in PBS is added to each well of the plate and plates are incubated for an additional 5 hours at 37 degrees Celsius, 5% CO2, and 95% humidity. Plates are read on a Synergy2 reader (Biotek, Winooski, Vt.) using an excitation of 540 nm and an emission of 600 nm. Data is analyzed using Prism software (Graphpad, San Diego, Calif.) to calculate IC50 values.
# The A375, HT-29, and Colo-205 cells (ATCC) harbor a V600E mutation.
# DMS-53 = assay: CellTiter-Glo proliferation and viability assay; type: cell-based; conditions: Homo sapiens, read-out: Abs IC50
# HT-1080 = assay: CellTiter-Glo proliferation and viability assay; type: cell-based; conditions: Homo sapiens
# 22RV1 = assay: CellTiter-Glo proliferation and viability assay; type: cell-based; conditions: Homo sapiens
# NOMO-1 = assay: CellTiter-Glo proliferation and viability assay; type: cell-based; conditions: Homo sapiens, read-out: Abs IC50
# A549 = assay: CellTiter-Glo proliferation and viability assay; type: cell-based; conditions: Homo sapiens
# HEL = assay: CellTiter-Glo proliferation and viability assay; type: cell-based; conditions: Homo sapiens, read-out: Abs IC50
# MOLT-4 = assay: CellTiter-Glo proliferation and viability assay; type: cell-based; conditions: Homo sapiens
# NCI-H1155 = assay: CellTiter-Glo proliferation and viability assay; type: cell-based; conditions: Homo sapiens
# NCI-H2081 = assay: CellTiter-Glo proliferation and viability assay; type: cell-based; conditions: Homo sapiens
# PLC-PRF-5 = assay: CellTiter-Glo proliferation and viability assay; type: cell-based; conditions: Homo sapiens
# [1] = system: phospho-MEK and phospho-ERK in HCT-116 cells harboring B-Raf wild type and K-Ras mutation; assay: Immunoblotting (Western Blot) analysis, paradoxical pathway activation; type: cell-based, human
# Protocol: Testing is carried out at doses of 0, and 11 serial dilutions ranging from 0.17 to 10000 nM. Protein lysates are generated by treatment of the cells with RIPA lysis buffer from Millipore. Western blotting analysis is performed substantially as described in Yadav et al, Molecular Carcinogenesis, 2011, 50: 346-52. Briefly, SDS-PAGE is performed on cell lysates containing 20 ug of total protein using 4-20% Novex® tri-glycine gradient gels (Invitrogen). Protein is transferred onto […] nitrocellulose membranes using NuPAGE® Transfer Buffer (Invitrogen) and 10% methanol at 100 V, 4° C. for 1 hr. Generally, the primary antibody is used at 1:1000 dilution, and secondary antibody at 1:20000 dilution. Proteins are detected using the Odyssey Infrared Imaging System (Li-COR Biosciences). Antibodies against ERK1/2, phospho-ERK1/2, phospho-MEK1/2, and actin are obtained from Cell Signaling Technology.
# Testing is carried out at doses of 0, and 11 serial dilutions ranging from 0.17 to 10000 nM. The phospho-MEK and phospho-ERK activities were evaluated by Immunoblotting (Western Blot) analysis.
# Bioavailability = conditions: in vivo
structure (smiles),measurement,setting,value
"CNc1ncc2cc(-c3cc(NC(=O)NCCC(C)(C)C)c(F)cc3C)c(C)nc2n1 [Example 1, 1-(3,3-Dimethylbutyl)-3-(2-fluoro-4-methyl-5-(7-methyl-2-(methylamino)pyrido[2,3-d]pyrimidin-6-yl)phenyl)urea]",inhibition at 0.001 µM,A-Raf (WT); 1 nM,4.3%
same,inhibition at 0.01 µM,A-Raf (WT); 10 nM,13.4%
same,inhibition at 0.1 µM,A-Raf (WT); 100 nM,53.6%
same,inhibition at 1 µM,A-Raf (WT); 1000 nM,72%
same,IC50,HT-29 cells,7 nM
same,IC50,DMS-53,0.6 nM
same,IC50,HT-1080; read-out: Abs IC50,0.98 nM
same,IC50,HT-1080; read-out: Rel IC50,0.5 nM
same,IC50,22RV1; read-out: Abs IC50,1.96 nM
same,IC50,22RV1; read-out: Rel IC50,0.19 nM
same,IC50,NOMO-1,2.63 nM
same,IC50,A549; read-out: Abs IC50,4.42 nM
same,IC50,A549; read-out: Rel IC50,2.07 nM
same,IC50,HEL,> 20 nM
same,IC50,MOLT-4; read-out: Abs IC50,> 20 nM
same,IC50,MOLT-4; read-out: Rel IC50,1.21 nM
same,IC50,NCI-H1155; read-out: Abs IC50,> 20 nM
same,IC50,NCI-H1155; read-out: Rel IC50,0.47 nM
same,IC50,NCI-H2081; read-out: Abs IC50,> 20 nM
same,IC50,NCI-H2081; read-out: Rel IC50,> 20 nM
same,IC50,PLC-PRF-5; read-out: Abs IC50,> 20 nM
same,IC50,PLC-PRF-5; read-out: Rel IC50,11.7 nM
same,paradoxical pathway activation,"[1]; HCT-116, B-Raf wild type and K-Ras mutation",minimal paradoxical pathway activation
same,doses that substantially eliminate phospho-ERK signal,"[1]; HCT-116, Western Blot",above 41 nM
same,bioavailability,Bioavailability,low
